Measured values as given in ChEMBL document CHEMBL3991601, “The target landscape of clinical kinase drugs” (Science, 2017).
Calls of active or inactive are those of the source. Rule as the data show it, for most assays here: actives have a measured Kd and inactives only a lower limit.

Target: T1, Cyclin-G-associated kinase (Homo sapiens, UniProt O14976)
T1 sequence (O14976 whole entry): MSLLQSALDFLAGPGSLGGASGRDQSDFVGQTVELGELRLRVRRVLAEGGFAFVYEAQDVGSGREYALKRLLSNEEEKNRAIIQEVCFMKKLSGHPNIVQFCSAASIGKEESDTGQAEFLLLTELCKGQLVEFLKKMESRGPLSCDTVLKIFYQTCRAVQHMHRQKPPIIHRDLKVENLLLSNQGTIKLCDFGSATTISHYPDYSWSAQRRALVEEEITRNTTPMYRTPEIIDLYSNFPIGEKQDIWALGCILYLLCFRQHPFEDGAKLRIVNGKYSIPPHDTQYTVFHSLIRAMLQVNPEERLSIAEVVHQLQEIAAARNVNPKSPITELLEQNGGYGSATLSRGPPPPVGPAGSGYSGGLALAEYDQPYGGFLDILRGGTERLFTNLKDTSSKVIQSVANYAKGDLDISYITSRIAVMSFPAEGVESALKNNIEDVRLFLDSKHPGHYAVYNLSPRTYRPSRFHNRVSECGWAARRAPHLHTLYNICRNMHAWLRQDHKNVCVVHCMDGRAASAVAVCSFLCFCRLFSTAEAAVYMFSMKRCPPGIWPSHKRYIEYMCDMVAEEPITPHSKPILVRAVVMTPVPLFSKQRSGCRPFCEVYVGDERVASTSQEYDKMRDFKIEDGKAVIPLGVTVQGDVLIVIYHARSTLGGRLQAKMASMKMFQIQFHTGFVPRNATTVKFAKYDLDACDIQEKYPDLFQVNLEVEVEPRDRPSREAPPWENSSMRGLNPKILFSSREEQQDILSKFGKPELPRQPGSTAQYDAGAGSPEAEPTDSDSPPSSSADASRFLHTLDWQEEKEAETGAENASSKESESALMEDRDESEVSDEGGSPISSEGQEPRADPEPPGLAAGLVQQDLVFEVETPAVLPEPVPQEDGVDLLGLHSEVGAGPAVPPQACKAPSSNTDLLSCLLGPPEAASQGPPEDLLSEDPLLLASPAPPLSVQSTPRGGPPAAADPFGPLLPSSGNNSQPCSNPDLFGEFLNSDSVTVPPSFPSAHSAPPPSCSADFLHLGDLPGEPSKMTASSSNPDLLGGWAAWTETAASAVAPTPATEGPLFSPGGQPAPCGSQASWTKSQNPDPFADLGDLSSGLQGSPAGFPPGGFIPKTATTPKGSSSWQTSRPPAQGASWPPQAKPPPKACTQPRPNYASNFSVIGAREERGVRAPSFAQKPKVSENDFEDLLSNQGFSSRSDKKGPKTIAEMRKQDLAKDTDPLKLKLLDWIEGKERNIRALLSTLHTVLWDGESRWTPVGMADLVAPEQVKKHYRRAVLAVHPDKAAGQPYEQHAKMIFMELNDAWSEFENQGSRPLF
Also: in the data inactive means no Kd found up to 30 µM.

Row | SMILES | Kd
1 | N[C@@H]1CCCN(c2c(/C=C3\SC(=O)NC3=O)cccc2-c2ccccc2)C1 | > 30 µM (inactive)
2 | Cc1ccc(S(=O)(=O)Nc2nc3ccccc3nc2Nc2ccc3nsnc3c2)cc1 | > 30 µM (inactive)
3 | CN1CC[C@@H](c2c(O)cc(O)c3c(=O)cc(-c4ccccc4Cl)oc23)[C@@H]1CO | > 30 µM (inactive)
4 | Cc1cc(-c2cc(O)ccc2Cl)cc2nnc(Nc3ccc(OCCN4CCCC4)cc3)nc12 | 0.002 µM (active)
5 | CCN1CCN(Cc2ccc(-c3cc4c(N[C@H](C)c5ccccc5)ncnc4[nH]3)cc2)CC1 [AEE-788] | > 30 µM (inactive)
6 | Cn1ncc(Cl)c1-c1cc(C(=O)N[C@H](CN)Cc2cccc(F)c2)sc1Cl [AFURESERTIB] | > 30 µM (inactive)

Target: T2, Bifunctional phosphoribosylaminoimidazole carboxylase/phosphoribosylaminoimidazole succinocarboxamide synthetase (Homo sapiens, UniProt P22234)
T2 sequence (P22234 whole entry): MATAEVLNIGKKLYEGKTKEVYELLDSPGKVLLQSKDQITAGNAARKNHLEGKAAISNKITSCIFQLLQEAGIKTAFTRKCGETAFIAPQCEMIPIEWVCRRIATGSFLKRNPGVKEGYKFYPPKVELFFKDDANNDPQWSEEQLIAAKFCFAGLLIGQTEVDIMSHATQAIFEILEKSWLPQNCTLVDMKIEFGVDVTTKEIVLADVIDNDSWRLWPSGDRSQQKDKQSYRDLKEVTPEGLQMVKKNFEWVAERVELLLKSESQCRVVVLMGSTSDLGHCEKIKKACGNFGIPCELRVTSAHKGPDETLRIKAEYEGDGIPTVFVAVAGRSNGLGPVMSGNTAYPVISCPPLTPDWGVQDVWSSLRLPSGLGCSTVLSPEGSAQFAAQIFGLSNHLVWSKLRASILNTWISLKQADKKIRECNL

Row | SMILES | Kd
7 | N[C@@H]1CCCN(c2c(/C=C3\SC(=O)NC3=O)cccc2-c2ccccc2)C1 | > 30 µM (inactive)
8 | Cc1ccc(S(=O)(=O)Nc2nc3ccccc3nc2Nc2ccc3nsnc3c2)cc1 | > 30 µM (inactive)
9 | CN1CC[C@@H](c2c(O)cc(O)c3c(=O)cc(-c4ccccc4Cl)oc23)[C@@H]1CO | > 30 µM (inactive)
10 | Cc1cc(-c2cc(O)ccc2Cl)cc2nnc(Nc3ccc(OCCN4CCCC4)cc3)nc12 | > 30 µM (inactive)
11 | CCN1CCN(Cc2ccc(-c3cc4c(N[C@H](C)c5ccccc5)ncnc4[nH]3)cc2)CC1 [AEE-788] | > 30 µM (inactive)
12 | Cn1ncc(Cl)c1-c1cc(C(=O)N[C@H](CN)Cc2cccc(F)c2)sc1Cl [AFURESERTIB] | > 30 µM (inactive)

Target: Protein kinase C beta type (Homo sapiens, UniProt P05771)
Sequence (P05771 whole entry): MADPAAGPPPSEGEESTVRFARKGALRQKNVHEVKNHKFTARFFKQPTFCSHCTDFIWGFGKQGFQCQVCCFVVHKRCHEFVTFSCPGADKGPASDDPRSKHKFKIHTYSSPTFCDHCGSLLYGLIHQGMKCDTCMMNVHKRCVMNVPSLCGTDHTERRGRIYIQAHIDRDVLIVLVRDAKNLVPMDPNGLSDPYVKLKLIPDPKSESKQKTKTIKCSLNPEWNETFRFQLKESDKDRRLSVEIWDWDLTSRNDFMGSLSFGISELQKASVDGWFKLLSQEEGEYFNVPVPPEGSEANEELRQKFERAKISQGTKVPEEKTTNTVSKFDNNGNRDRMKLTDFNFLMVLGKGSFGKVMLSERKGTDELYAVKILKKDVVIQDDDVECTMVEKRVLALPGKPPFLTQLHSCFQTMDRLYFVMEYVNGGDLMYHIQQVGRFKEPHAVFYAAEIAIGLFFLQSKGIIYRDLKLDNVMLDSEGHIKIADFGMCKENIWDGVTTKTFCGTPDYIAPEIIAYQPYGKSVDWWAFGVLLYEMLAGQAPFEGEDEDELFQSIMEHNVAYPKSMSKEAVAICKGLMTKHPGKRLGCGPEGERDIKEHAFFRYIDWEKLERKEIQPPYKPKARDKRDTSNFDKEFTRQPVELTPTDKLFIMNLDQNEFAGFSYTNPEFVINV

Row | SMILES | Kd
13 | N[C@@H]1CCCN(c2c(/C=C3\SC(=O)NC3=O)cccc2-c2ccccc2)C1 | > 30 µM (inactive)
14 | Cc1ccc(S(=O)(=O)Nc2nc3ccccc3nc2Nc2ccc3nsnc3c2)cc1 | > 30 µM (inactive)
15 | CN1CC[C@@H](c2c(O)cc(O)c3c(=O)cc(-c4ccccc4Cl)oc23)[C@@H]1CO | > 30 µM (inactive)
16 | Cc1cc(-c2cc(O)ccc2Cl)cc2nnc(Nc3ccc(OCCN4CCCC4)cc3)nc12 | > 30 µM (inactive)
17 | CCN1CCN(Cc2ccc(-c3cc4c(N[C@H](C)c5ccccc5)ncnc4[nH]3)cc2)CC1 [AEE-788] | > 30 µM (inactive)
18 | Cn1ncc(Cl)c1-c1cc(C(=O)N[C@H](CN)Cc2cccc(F)c2)sc1Cl [AFURESERTIB] | 4.88 µM (active)

Target: Tyrosine-protein kinase CSK (Homo sapiens, UniProt P41240)
Sequence (P41240 whole entry): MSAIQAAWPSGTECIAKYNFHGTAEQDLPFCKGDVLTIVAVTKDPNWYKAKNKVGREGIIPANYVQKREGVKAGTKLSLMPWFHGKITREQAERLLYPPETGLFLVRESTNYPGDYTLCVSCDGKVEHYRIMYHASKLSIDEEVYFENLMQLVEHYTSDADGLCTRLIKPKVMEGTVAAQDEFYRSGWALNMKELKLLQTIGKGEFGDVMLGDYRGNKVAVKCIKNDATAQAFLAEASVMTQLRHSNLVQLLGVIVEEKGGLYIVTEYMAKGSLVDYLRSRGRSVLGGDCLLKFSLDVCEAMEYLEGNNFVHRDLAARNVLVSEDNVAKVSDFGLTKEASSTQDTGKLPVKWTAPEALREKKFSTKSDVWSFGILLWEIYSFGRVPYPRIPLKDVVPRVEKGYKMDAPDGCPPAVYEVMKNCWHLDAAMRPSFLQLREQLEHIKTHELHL

Row | SMILES | Kd
19 | N[C@@H]1CCCN(c2c(/C=C3\SC(=O)NC3=O)cccc2-c2ccccc2)C1 | > 30 µM (inactive)
20 | Cc1ccc(S(=O)(=O)Nc2nc3ccccc3nc2Nc2ccc3nsnc3c2)cc1 | > 30 µM (inactive)
21 | CN1CC[C@@H](c2c(O)cc(O)c3c(=O)cc(-c4ccccc4Cl)oc23)[C@@H]1CO | > 30 µM (inactive)
22 | Cc1cc(-c2cc(O)ccc2Cl)cc2nnc(Nc3ccc(OCCN4CCCC4)cc3)nc12 | > 30 µM (inactive)
23 | CCN1CCN(Cc2ccc(-c3cc4c(N[C@H](C)c5ccccc5)ncnc4[nH]3)cc2)CC1 [AEE-788] | > 30 µM (inactive)
24 | Cn1ncc(Cl)c1-c1cc(C(=O)N[C@H](CN)Cc2cccc(F)c2)sc1Cl [AFURESERTIB] | > 30 µM (inactive)

Target: Cyclin-dependent kinase 13 (Homo sapiens, UniProt Q14004)
Sequence (Q14004 whole entry): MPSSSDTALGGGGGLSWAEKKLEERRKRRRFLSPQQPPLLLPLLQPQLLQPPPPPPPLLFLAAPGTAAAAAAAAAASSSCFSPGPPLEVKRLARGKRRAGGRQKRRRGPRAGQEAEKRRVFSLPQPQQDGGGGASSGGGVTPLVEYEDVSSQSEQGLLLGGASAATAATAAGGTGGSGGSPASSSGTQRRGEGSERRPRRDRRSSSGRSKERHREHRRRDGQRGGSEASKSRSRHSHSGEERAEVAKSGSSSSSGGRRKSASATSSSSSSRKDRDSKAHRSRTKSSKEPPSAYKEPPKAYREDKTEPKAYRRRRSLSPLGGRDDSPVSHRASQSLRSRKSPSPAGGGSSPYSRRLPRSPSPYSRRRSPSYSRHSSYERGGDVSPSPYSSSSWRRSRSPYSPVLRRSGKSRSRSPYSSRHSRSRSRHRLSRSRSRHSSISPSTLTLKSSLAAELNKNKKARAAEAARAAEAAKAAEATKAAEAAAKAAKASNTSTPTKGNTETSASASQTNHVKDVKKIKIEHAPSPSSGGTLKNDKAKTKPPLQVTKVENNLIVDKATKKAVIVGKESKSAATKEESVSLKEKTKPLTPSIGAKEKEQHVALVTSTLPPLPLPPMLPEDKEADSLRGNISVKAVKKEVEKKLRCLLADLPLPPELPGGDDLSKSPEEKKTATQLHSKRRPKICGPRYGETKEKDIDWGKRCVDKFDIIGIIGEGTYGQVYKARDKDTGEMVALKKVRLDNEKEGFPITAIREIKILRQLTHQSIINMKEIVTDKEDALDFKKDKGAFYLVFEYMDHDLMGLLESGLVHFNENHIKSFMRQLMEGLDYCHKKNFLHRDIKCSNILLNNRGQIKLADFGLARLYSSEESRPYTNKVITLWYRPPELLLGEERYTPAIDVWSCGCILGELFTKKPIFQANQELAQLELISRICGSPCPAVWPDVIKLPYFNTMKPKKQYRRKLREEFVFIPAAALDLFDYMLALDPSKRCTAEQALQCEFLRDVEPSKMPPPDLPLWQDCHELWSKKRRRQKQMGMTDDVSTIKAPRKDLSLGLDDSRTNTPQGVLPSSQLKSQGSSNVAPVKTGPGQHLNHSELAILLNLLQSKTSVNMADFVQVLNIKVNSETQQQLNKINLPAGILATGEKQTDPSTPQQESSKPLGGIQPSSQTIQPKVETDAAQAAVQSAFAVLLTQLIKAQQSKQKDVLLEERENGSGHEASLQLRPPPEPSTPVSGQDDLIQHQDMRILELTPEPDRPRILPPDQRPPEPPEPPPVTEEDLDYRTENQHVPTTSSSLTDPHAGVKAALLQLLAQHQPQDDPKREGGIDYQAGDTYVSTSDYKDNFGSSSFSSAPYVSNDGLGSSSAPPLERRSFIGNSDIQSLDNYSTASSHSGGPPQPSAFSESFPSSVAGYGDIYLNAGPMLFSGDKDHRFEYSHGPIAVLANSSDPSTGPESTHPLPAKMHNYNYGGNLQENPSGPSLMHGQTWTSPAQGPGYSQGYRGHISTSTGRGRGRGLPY

Row | SMILES | Kd
25 | N[C@@H]1CCCN(c2c(/C=C3\SC(=O)NC3=O)cccc2-c2ccccc2)C1 | > 30 µM (inactive)
26 | Cc1ccc(S(=O)(=O)Nc2nc3ccccc3nc2Nc2ccc3nsnc3c2)cc1 | > 30 µM (inactive)
27 | CN1CC[C@@H](c2c(O)cc(O)c3c(=O)cc(-c4ccccc4Cl)oc23)[C@@H]1CO | > 30 µM (inactive)
28 | Cc1cc(-c2cc(O)ccc2Cl)cc2nnc(Nc3ccc(OCCN4CCCC4)cc3)nc12 | > 30 µM (inactive)
29 | CCN1CCN(Cc2ccc(-c3cc4c(N[C@H](C)c5ccccc5)ncnc4[nH]3)cc2)CC1 [AEE-788] | > 30 µM (inactive)
30 | Cn1ncc(Cl)c1-c1cc(C(=O)N[C@H](CN)Cc2cccc(F)c2)sc1Cl [AFURESERTIB] | > 30 µM (inactive)

Target: T3, AarF domain-containing protein kinase 1 (Homo sapiens, UniProt Q86TW2)
T3 sequence (Q86TW2 whole entry): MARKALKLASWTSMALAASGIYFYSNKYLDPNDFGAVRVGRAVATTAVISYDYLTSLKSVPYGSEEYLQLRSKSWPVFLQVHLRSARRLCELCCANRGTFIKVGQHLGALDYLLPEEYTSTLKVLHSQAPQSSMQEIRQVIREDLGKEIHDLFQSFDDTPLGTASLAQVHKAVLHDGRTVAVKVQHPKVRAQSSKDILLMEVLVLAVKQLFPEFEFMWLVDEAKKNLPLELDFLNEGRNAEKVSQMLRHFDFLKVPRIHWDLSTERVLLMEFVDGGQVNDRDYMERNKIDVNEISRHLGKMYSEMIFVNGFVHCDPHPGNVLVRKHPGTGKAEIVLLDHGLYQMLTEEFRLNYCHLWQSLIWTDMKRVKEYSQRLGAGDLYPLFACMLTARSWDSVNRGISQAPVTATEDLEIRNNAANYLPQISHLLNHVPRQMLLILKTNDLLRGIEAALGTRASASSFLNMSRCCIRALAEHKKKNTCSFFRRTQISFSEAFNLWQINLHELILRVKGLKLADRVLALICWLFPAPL

Row | SMILES | Kd
31 | N[C@@H]1CCCN(c2c(/C=C3\SC(=O)NC3=O)cccc2-c2ccccc2)C1 | > 30 µM (inactive)
32 | Cc1ccc(S(=O)(=O)Nc2nc3ccccc3nc2Nc2ccc3nsnc3c2)cc1 | > 30 µM (inactive)
33 | CN1CC[C@@H](c2c(O)cc(O)c3c(=O)cc(-c4ccccc4Cl)oc23)[C@@H]1CO | > 30 µM (inactive)
34 | Cc1cc(-c2cc(O)ccc2Cl)cc2nnc(Nc3ccc(OCCN4CCCC4)cc3)nc12 | > 30 µM (inactive)
35 | CCN1CCN(Cc2ccc(-c3cc4c(N[C@H](C)c5ccccc5)ncnc4[nH]3)cc2)CC1 [AEE-788] | > 30 µM (inactive)
36 | Cn1ncc(Cl)c1-c1cc(C(=O)N[C@H](CN)Cc2cccc(F)c2)sc1Cl [AFURESERTIB] | > 30 µM (inactive)
